Source: US20190375708A1 (VenatoRx Pharmaceuticals, Inc., priority 2018, published 2019)

Tests used:
[1] = In vitro cytotoxicity assay (MTT cell viability) in HepG2 cells; format: cell-based, human; settings: human
Procedure, shortened: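 Using MTT conversion as the viability measure, HepG2 cells were incubated with compounds for 7 days (30 μM to 1.0 nM). Absorbance at 492 nm was normalized to vehicle and fitted to give CC50.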

[2] = tested on: HBV replication in HepAD38 cells; test: Anti-HBV replication assay in HepAD38 cells (QPCR of extracellular HBV DNA); format: cell-based, HBV (genotype D, serotype ayw); settings: Hepatitis B virus, 168 h, 7 days incubation, extracellular HBV DNA by QPCR, read-out: Anti-HBV EC50
Procedure, shortened: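 Steps: seed HepAD38 overnight without tetracycline; refresh medium and add 1 log10 serial dilutions ([…]); incubate 7 days at 37 °C; quantify supernatant HBV DNA by QPCR; derive EC50 from a 4-parameter dose-response fit.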

Structure (SMILES)	CC50 at 7 days [1] [nM]	EC50 [2] [nM]
Cc1cc(NC(=O)c2c(Cl)c(C(=O)C(=O)NC3(CO)CC3)n3c2CCC3)ccc1F [Example 542, 6-chloro-N-(4-fluoro-3-methylphenyl)-5-(2-((1-(hydroxymethyl)cyclopropyl)amino)-2-oxoacetyl)-2,3-dihydro-1H-pyrrolizine-7-carboxamide]	> 30000	< 50
Cc1noc([C@H](C)NC(=O)C(=O)c2c(Cl)c(C(=O)Nc3ccc(F)c(Cl)c3)c3n2CCCC3)n1 [Example 523, (S)-2-chloro-N-(3-chloro-4-fluorophenyl)-3-(2-((1-(3-methyl-1,2,4-oxadiazol-5-yl)ethyl)amino)-2-oxoacetyl)-5,6,7,8-tetrahydroindolizine-1-carboxamide]	5000 to 30000	50 to 499
Cc1c(C(=O)NC2CCC(F)(F)C2)c2n(c1C(=O)C(=O)NC1(CO)CCC1)CCCC2 (stereo not shown) [Example 744, N-(3,3-difluorocyclopentyl)-3-(2-((1-(hydroxymethyl)cyclobutyl)amino)-2-oxoacetyl)-2-methyl-5,6,7,8-tetrahdyroindolizine-1-carboxamide]	> 30000	50 to 499
Cc1nc2c(s1)C(NC(=O)C(=O)c1c(C)c(C(=O)Nc3ccnc(F)c3)c(C)n1C)CCC2 (stereo not shown) [Example 607, N-(2-fluoropyridin-4-yl)-1,2,4-trimethyl-5-(2-((2-methyl-4,5,6,7-tetrahydrobenzo[d]thiazol-7-yl)amino)-2-oxoacetyl)-1H-pyrrole-3-carboxamide]	> 30000	< 50
Cc1noc([C@@H](C)NC(=O)C(=O)c2c(Cl)c(C(=O)Nc3ccc(F)c(F)c3)c3n2CCCC3)n1 [Example 517, (R)-2-chloro-N-(3,4-difluorophenyl)-3-(2-((1-(3-methyl-1,2,4-oxadiazol-5-yl)ethyl)amino)-2-oxoacetyl)-5,6,7,8-tetrahydroindolizine-1-carboxamidde]	5000 to 30000	50 to 499
Cc1cc(NC(=O)c2c(C)c(C(=O)C(=O)NCc3cnc(N)s3)n3c2CCCC3)cnc1F [Example 473, 3-(2-(((2-aminothiazol-5-yl)methyl)amino)-2-oxoacetyl)-N-(6-ffluoro-5-methylpyridin-3-yl)-2-methyl-5,,6,7,8-tetrahydroindolizine--1 carboxamide]	> 30000	500 to 1000
O=C(N[C@H]1CCC[C@H]1O)C(=O)c1c(Cl)c(C(=O)Nc2ccc(F)c(Cl)c2)c2n1CCC2 [Example 564, 6-chloro-N-(3-chloro-4-fluorophenyl)-5--(2-(((1S,2R)-2-hydroxycyclopentyl)amino)-2-oxoacetyl)-2,3-dihydro-1H-pyrrolizine-7-carboxamide]	5000 to 30000	< 50
Cc1cc(NC(=O)c2c(C)c(C(=O)C(=O)NC(C)(C)C(N)=O)n(CCO)c2C)ccc1F [Example 72, 5-(2-((1-amino-2-methyl-1-oxopropan-2-yl)amino)-2-oxoacetyl)-N-(4-fluoro-3-methylphenyl)-1-(2-hydroxyethyl)-2,4-dimethyl-1H-pyrrole-3-carboxamide]	> 30000	> 1000
Cc1cc(NC(=O)c2cc(C(=O)C(=O)NC(C)(C)C)n3c2CCC3)ccc1F [Example 536, 5-(2-(tert-butylamino)-2-oxoacetyl)-N-(4-fluoro-3-methylphenyl)-2,3-dihydro-1H-pyrrolizine-7-carboxamide]	> 30000	< 50
Cc1cc(NC(=O)c2c(C)c(C(=O)C(=O)NC3CC4(CC(O)C4)C3)n(C)c2C)ccc1F (stereo not shown) [Example 598, N-(4-fluoro-3-methylphenyl)-5-(2-((6-hydroxyspiro[3.3]heptan-2-yl)amino)-2-oxoacetyl)-1,2,4-trimethyl-1H-pyrrole-3-carboxamide]	> 30000	< 50
Cc1cc(NC(=O)c2c(C)c(C(=O)C(=O)NC3CCC(F)(F)CC3)n(C)c2C)cnc1F [Example 343, 5-(2-((4,4-difluorocyclohexyl)amino)-2-oxoacetyl)-N-(6-fluoro-5-methylpyridin-3-yl)-1,2,4-trimethyl-1H-pyrrole-3-carboxamide]	> 30000	50 to 499
Cc1cc(NC(=O)c2c(C)c(C(=O)C(=O)N[C@H](C(=O)O)C3CCCCC3)n(C)c2C)ccc1F [Example 68, (S)-2-cyclohexyl-2-(2-(4-((4-fluoro-3-methylphenyl)carbamoyl)-1,3,5-trimethyl-1H-pyrrol-2-yl)-2-oxoacetamido)acetic acid]	> 30000	> 1000
Cc1cc(NC(=O)c2c(C)c(C(=O)C(=O)NC34CC5CC(CC3C5)C4)n(C)c2C)ccc1F [Example 18, N-(4-fluoro-3-methylphenyl)-5-(2-(((2R,3as,5S,6as)-hexahydro-2,5-methanopentalen-3a(1H)-yl)amino)-2-oxoacetyl)-1,2,4-trimethyl-1H-pyrrole-3-carboxamide]	> 30000	< 50
Cc1cc(NC(=O)c2c(C)c(C(=O)C(=O)N[C@H]3CC[C@@H](CO)CC3)n(C)c2C)ccc1F [Example 676, N-(4-fluoro-3-methylphenyl)-5-(2-(((1s,4s)-4-(hydroxymethyl)cyclohexyl)amino)-2-oxoacetyl)-1,2,4-trimethyl-1H-pyrrole-3-carboxamide]	> 30000	< 50
Cc1c(C(=O)Nc2ccc(F)c(F)c2)c2n(c1C(=O)C(=O)N[C@H]1C[C@H](O)C1)CCCC2 [Example 456, N-(3,4-difluorophenyl)-3-(2-(((1r,3r)-3-hydroxycyclobutyl)amino)-2-oxoacetyl)-2-methyl-5,6,7,8-tetrahydroindolizine-1-carboxamide]	> 30000	500 to 1000
Cc1cc(NC(=O)c2c(C)c(C(=O)C(=O)NC(C)(C)C(F)(F)F)n(C)c2C)ccc1F [Example 9, N-(4-fluoro-3-methylphenyl)-1,2,4-trimethyl-5-(2-oxo-2-((1,1,1-trifluoro-2-methylpropan-2-yl)amino)acetyl)-1H-pyrrole-3-carboxamide]	> 30000	< 50
Cc1cc(NC(=O)c2c(C)c(C(=O)C(=O)NC3CCCN(C)CC3)n(C)c2C)ccc1F (stereo not shown) [Example 353, N-(44-fluoro-3-methylphenyl)-1,2,4-trimethyl-5-(2-((1-methylazepan-4-yl)amino)-2-oxoacetyl)-1H-pyrrole-3-carboxamide]	> 30000	50 to 499
Cc1cc(NC(=O)c2c(C)c(C(=O)C(=O)N[C@H]3COC[C@@H]3O)n(C)c2C)ccc1F [Example 128, N-(4-fluoro-3-methylphenyl)-5-(2-(((3S,4R)-4-hydroxytetrahydrofuran-3-yl)amino)-2-oxoacetyl)-1,2,4-trimethyl-1H-pyrrole-3-carboxamide]	> 30000	< 50
Cc1c(C(=O)Nc2ccnc(F)c2)c(C)n(C)c1C(=O)C(=O)NC12CC3CC(CC1C3)C2 [Example 90, N-(2-fluoropyridin-4-yl)-5-(2-(((2R,3as,5S,6as)-hexahydro-2,5-methanopentalen-3a(1H)-yl)amino)-2-oxoacetyl)-1,2,4-trimethyl-1H-pyrrole-3-carboxamide]	5000 to 30000	< 50
Cc1nc(CCNC(=O)C(=O)c2c(C)c(C(=O)Nc3ccc(F)c(C)c3)c(C)n2C)c(C)s1 [Example 327, 5-(2-((2-(2,5-dimethylthiazol-4-yl)ethyl)amnio)-2-oxoacetyl)-N-(4-fluoro-3-methylphenyl)-1,2,4-trimethyl-1H-pyrrole-3-carboxamide]	> 30000	< 50
Cc1cc(NC(=O)c2c(C)c(C(=O)C(=O)NCC3(O)CCOCC3)n(C)c2C)ccc1F [Example 150, N-(4-fluoro-3-methylphenyl)-5-(2-(((4-hydroxytetrahydro-2H-pyran-4-yl)methyl)amino)-2-oxoacetyl)-1,2,4-trimethyl-1H-pyrrole-3-carboxamide]	> 30000	< 50
Cc1cc(NC(=O)c2c(C)c(C(=O)C(=O)N[C@@H]3CCOC[C@H]3O)n(CCF)c2C)ccc1F [Example 196, N-(4-fluoro-3-methylphenyl)-1-(2-fluoroethyl)-5-(2-(((3S,4R)-3-hydroxytetrahydro-2H-pyran-4-yl)amino)-2-oxoacetyl)-2,4-dimethyl-1H-pyrrole-3-carboxamide]	> 30000	50 to 499
Cc1cc(NC(=O)c2c(C)c(C(=O)C(=O)N3[C@@H]4CC[C@H]3C[C@H](O)C4)n(C)c2C)ccc1F [Example 48, N-(4-fluoro-3-methylphenyl)-5-(2-((1R,3s,5S)-3-hydroxy-8-azabicyclo[3.2.1]octan-8-yl)-2-oxoacetyl)-1,2,4-trimethyl-1H-pyrrole-3-carboxamide]	> 30000	50 to 499
Cc1cc(NC(=O)c2c(C)c(C(=O)C(=O)NC3(C)CCN(c4cnccn4)CC3)n(C)c2C)ccc1F [Example 715, N-(4-fluoro-3-methylphenyl)-1,2,4-trimethyl-5-(2-((4-methyl-1-(pyrazin-2-yl)piperidin-4-yl)amino)-2-oxoacetyl)-1H-pyrrole-3-carboxamide]	5000 to 30000	< 50
Cc1cc(NC(=O)c2c(C)c(C(=O)C(=O)NC3(CO)CC3)n(C)c2C)ccc1F [Example 7, N-(4-fluoro-3-methylphenyl)-5-(2-((1-(hydroxymethyl)cyclopropyl)amino)-2-oxoacetyl)-1,2,4-trimethyl-1H-pyrrole-3-carboxamide]	> 30000	< 50
O=C(NC1(CO)CC1)C(=O)c1c(Cl)c(C(=O)Nc2ccc(F)c(F)c2)c2n1CCC2 [Example 561, 6-chloro-N-(3,4-difluorohphenyl)-5-(2-((1-(hydroxymethyl)cyclopropyl)amino)-2-oxoacetyl)-2,3-dihydro-1H-pyrrolizine-7-carboxamide]	> 30000	< 50
